Values of other authors as cited in patent publication US6365196B1, “Controlled release solid dosage forms of lithium carbonate” (SmithKline Beecham Corporation, priority 1997, dated 2002).

## O=C(O)/C=C/C(=O)O [fumaric acid]
  solubility in water: 6 mg per ml
